What all share (format): in vitro ADME
The target of series [1] is T1, OATP1B1 (Homo sapiens, UniProt Q9Y6L6).
T1 construct: host or cells: HEK293
T1 sequence (Q9Y6L6 1-691): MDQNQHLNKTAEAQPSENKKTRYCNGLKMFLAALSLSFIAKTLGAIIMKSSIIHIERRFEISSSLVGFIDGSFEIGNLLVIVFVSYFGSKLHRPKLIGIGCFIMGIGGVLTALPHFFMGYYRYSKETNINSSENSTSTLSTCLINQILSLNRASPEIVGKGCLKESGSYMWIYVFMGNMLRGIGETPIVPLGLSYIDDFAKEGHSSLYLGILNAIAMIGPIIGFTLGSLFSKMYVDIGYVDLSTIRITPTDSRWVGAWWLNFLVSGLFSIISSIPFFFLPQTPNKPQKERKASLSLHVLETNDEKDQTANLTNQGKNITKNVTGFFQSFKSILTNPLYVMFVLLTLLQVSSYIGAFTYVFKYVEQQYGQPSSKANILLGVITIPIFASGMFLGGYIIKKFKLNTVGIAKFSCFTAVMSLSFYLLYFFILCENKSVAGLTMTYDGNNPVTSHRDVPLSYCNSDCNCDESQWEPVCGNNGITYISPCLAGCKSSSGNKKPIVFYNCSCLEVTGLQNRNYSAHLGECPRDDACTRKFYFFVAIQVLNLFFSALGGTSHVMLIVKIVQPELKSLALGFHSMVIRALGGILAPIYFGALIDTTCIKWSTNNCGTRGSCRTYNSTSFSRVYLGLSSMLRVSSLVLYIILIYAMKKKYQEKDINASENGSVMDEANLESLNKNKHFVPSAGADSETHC
In words: Inhibition of prototypical substrate (E17βG) uptake by TCMCB07 in HEK293/OATP1B1 cells.
Protocol: (§1) Cells were then washed three times × 1.0 mL each with pre‐warmed Hank's Balanced Salt Solution (HBSS) buffer. A 0.5 mL aliquot of uptake buffer [HBSS plus 10 mM 4‐(2‐hydroxyethyl)‐1‐piperazineethanesulfonic acid (HEPES), pH 7.4], containing the radiolabelled prototypical substrate and mannitol, was then incubated for various times up to 60 min to determine the optimal incubation time for subsequent experiments (i.e. time of sampling during linear uptake conditions). At the designated times, 1.0 mL of ice‐cold HBSS buffer was added to stop uptake after which the cells were rinsed three times with 1.0 mL with ice‐cold HBSS. Hyamine hydroxide (0.33 mL) was then added to each well to lyse the cells. The cells were transferred into a scintillation vial and mixed with 6.0 mL of cytosine scintillation cocktail. Radioactivity of the solubilized cells was determined with a dual‐channel liquid scintillation counter (Beckman LS 6000; Beckman Coulter Inc., Fullerton, CA) and the protein quantified by a bicinchoninic acid protein assay kit (Pierce Biotechnology; Rockford, IL).

Series [2] concerns the target T2, OATP1B3 (Homo sapiens, UniProt Q9NPD5).
T2 construct: host or cells: HEK293
T2 sequence (Q9NPD5 1-702): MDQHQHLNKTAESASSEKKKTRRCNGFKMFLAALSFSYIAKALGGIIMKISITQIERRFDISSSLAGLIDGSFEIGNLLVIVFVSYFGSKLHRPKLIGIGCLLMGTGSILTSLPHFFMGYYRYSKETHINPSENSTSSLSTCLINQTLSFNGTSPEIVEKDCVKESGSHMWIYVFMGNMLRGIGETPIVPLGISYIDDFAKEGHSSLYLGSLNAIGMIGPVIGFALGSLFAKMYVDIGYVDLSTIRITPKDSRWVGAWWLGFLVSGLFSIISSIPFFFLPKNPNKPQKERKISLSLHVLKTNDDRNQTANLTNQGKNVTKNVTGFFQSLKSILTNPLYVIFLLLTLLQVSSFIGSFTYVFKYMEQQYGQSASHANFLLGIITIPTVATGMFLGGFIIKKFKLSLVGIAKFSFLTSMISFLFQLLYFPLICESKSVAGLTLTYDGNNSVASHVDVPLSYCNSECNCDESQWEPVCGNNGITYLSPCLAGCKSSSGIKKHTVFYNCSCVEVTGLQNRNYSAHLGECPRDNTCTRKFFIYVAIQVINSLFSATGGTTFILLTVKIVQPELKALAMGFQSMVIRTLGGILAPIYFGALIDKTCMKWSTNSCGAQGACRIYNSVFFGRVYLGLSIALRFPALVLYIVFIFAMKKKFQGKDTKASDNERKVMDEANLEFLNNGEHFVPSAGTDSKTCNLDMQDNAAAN
In words: Inhibition of prototypical substrate (CCK‐8) uptake by TCMCB07 in HEK293/OATP1B3 cells.
Protocol: as §1

Series [3] addresses T3, human P‐gp (ABCB1, MDR1) (Homo sapiens, UniProt P08183).
T3 construct: host or cells: MDCKII
In words: Transepithelial transport of digoxin (±TCMCB07) in MDCKII/MDR1 cells. The protocol:
Cells were then washed three times, each with 0.5 mL pre‐warmed HBSS buffer. […] The cells were then incubated for various times up to 60 min. […] At the designated times, 15 μL of apical buffer and 50 μL of basolateral buffer were sampled. Once all the samples were collected, 0.5 mL of ice‐cold HBSS buffer was added to the well to stop transport after which the cells were rinsed three times with 0.5 mL of ice‐cold HBSS. The filters with monolayers were then detached from the chamber and placed in a scintillation vial, and the cells were lysed with 0.33 mL hyamine hydroxide.
The permeability of digoxin and rosuvastatin (prototypical substrates for MDR1 and BCRP, respectively) was determined by the following ^18 : (4) Papp=CR·VR/CD^o·A·∆Δt, where Papp is the apparent permeability, CR is the concentration of substrate in the receiver chamber, CD^o is the concentration of substrate in the donor chamber at time zero, VR is the volume of buffer in the receiver chamber, A is the surface area of the insert filter membrane, and ∆t is the time over which permeability is measured.

This is an account of results in article PMC7749613 (Journal of Cachexia, Sarcopenia and Muscle, 2020).

Bridge positions count the residues as written; N and C are the ends. Square brackets hold non-standard residues; d marks the D form. Peptide text beside a SMILES is read from it. d2Nal = N[C@H](Cc1ccc2ccccc2c1)C(=O)O; Nle = CCCC[C@H](N)C(=O)O

The term IC50 denotes the concentration that gives 50% inhibition. Low readings indicate higher potency, high ones lower potency.

T3 sequence (P08183 whole entry): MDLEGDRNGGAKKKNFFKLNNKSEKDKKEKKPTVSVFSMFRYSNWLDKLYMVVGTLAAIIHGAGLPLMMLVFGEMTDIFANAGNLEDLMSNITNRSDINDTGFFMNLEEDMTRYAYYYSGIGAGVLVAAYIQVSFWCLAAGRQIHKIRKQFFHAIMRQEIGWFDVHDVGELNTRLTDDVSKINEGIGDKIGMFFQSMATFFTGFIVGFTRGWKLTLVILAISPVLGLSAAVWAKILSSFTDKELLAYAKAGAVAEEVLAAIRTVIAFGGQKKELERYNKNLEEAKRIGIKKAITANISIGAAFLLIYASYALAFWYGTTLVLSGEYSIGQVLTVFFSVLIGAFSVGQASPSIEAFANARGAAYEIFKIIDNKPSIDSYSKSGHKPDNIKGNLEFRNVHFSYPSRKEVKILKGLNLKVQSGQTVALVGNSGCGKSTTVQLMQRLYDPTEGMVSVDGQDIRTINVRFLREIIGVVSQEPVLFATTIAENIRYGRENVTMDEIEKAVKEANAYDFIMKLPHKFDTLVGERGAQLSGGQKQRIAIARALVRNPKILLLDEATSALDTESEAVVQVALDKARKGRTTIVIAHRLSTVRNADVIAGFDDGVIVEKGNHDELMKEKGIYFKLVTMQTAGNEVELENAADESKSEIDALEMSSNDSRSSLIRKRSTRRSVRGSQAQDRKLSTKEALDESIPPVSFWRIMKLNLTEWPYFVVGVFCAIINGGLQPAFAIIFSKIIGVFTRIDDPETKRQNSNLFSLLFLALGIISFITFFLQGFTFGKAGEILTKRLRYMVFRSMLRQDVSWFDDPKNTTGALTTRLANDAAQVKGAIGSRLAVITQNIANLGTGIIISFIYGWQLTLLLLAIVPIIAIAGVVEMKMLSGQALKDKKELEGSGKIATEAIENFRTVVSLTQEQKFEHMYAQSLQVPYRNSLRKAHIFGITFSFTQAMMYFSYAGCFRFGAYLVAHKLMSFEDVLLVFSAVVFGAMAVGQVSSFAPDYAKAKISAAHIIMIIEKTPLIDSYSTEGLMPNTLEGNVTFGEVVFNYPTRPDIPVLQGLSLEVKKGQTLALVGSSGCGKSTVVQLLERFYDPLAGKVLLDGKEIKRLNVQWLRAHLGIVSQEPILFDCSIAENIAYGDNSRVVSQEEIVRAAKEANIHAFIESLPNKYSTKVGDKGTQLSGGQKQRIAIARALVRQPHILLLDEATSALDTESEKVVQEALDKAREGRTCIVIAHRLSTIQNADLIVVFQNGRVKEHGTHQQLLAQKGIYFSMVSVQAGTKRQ

Turning to `CCCC[C@H](NC(C)=O)C(=O)N[C@H]1CC(=O)NCCCC[C@@H](C(=O)N[C@@H](C(=O)N2CCC[C@@H]2C(N)=O)C(C)C)NC(=O)[C@H](Cc2c[nH]c3ccccc23)NC(=O)[C@H](CCCN=C(N)N)NC(=O)[C@@H](Cc2ccc3ccccc3c2)NC(=O)[C@@H]2CCCN2C1=O` [TCMCB07, Ac‐Nle‐c[Asp‐Pro‐dNal2′‐Arg‐Trp‐Lys]‐dVal‐dPro‐NH2] (Ac-[Nle]DP[d2Nal]RWK[dV][dP]-NH2; lactam 2-7), the 50% inhibitory concentration (IC50) was 6.8 ± 1 µM in series [1] and 307 ± 39 µM in series [2]. Besides, the Slope factor was found to be 1.0 ± 0.1 in series [1] (slope factor n of Eqn 1, OATP1B1, substrate E17βG) and 1.8 ± 0.3 in series [2] (slope factor n of Eqn 1, OATP1B3, substrate CCK‐8). Further, in series [3] (in the presence of 500 μM TCMCB07, decreased by), the “decrease of MDR1‐mediated permeability of digoxin, A to B direction” value is recorded as 27%. Also, the “increase of MDR1‐mediated permeability of digoxin, B to A direction” value in series [3] (in the presence of 500 μM TCMCB07, increased by) was found to be 68%. The “effect on P‐gp (MDR1)‐mediated permeability of prototypical substrate” value in series [3] (transfected cells, 500 μM TCMCB07) was “did not affect”.
